Data on 25 molecules can be found in US20100029615A1, “BENZIMIDAZOLE DERIVATIVES” (priority 2006, published 2010).

This assay addresses T1, SMO (Mus musculus, UniProt P56726).
T1 construct: endogenous in cells; host or cells: C3H10T1/2 (ATCC #CCL-226)
In words: Smoothened (SMO)/Sonic Hedgehog (SHh) Transient Transcriptional Activation Assay (Gli-luciferase reporter in C3H10T1/2 cells). The format is cell-based, murine. The settings on record: SHh 250 ng/ml, 20 hrs; for SMO % inhibition at 2 uM: 2 uM test compound; for SMO CELL % INHIBITION @ 2 μM: 2 μM test compound, HCl. On the procedure: As noted above, the compounds of the invention are useful as inhibitors of SMO. Methods for determining the in vitro activity of these compounds are described below: Smoothened (SMO)/Sonic Hedgehog (SHh) Transient Transcriptional Activation Assay
On Day 1,2×10^6 C3H10T1/2 cells (ATCC #CCL-226) were split and seeded in 12 mls of growth medium Basal Medium Eagle (BME, Invitrogen #21010-046) supplemented with 2 mM L-glutamine (Invitrogen #25030-081), 0.1 units/ml penicillin and 0.1 ug/ml streptomycin (Invitrogen #15140-122), and 10% Fetal Bovine Serum (FBS, Invitrogen #16140-071) in a T-75 flask (Costar #3376). They were allowed to attach for 4 hours at 37° C., 5% CO2. The cells were then transfected using Fugene 6 (Roch #11 814 443 001) in the following reaction: 48 ul Fugene 6 and 745 ul Opti-MEM (Invitrogen #31985-070) were mixed and allowed to sit at room temperature for 5 minutes. 8 ug of pGL4.14/mGli(CS) DNA (10× murine Gli response elements and minimal CS promoter) and 0.5 ug of pEGFP DNA (Clontech) were added, gently mixed and incubated at room temperature for 20 minutes. This entire transfection mix was then added to the T-75 flask containing the cells. The cells were incubated at 37 °C, 5% C02 for 18-24 hrs.
On Day 2, the transfected cells were trypsinized and seeded into white 96 well plates (Costar #3917) in 100ul/well of growth medium at a concentration of 20,000 cells/well. The cells were allowed to recover for 4 hrs before adding serum starvation medium Dulbecco's Modified Eagle Medium (DMEM, Invitrogen #21063-029) supplemented with 2 mM L-glutamine, 0.1 units/ml penicillin and 0.1 ug/ml streptomycin, and 0.5% Calf Serum (CS, Invitrogen #26170-043). The growth media was aspirated off, and the cells were rinsed with 100 ul of starvation media. 95 ul of starvation media was then added to each well. The cells were incubated for 20 hrs at 37 °C, 5% C02.
On Day 3, cells were dosed with test compounds at a final concentration ranging from 2 uM to 2 nM. Immediately after dosing cells with compounds, recombinant human sonic hedgehog (SHh, R&D Systems #1845-SH) was add to a final concentration of 250 ng/ml. A 25 ug vial of SHh was reconstituted with 250 ul PBS/0.1% BSA to give a 100 ng/ul working stock. This working stock was then diluted 1:20 in starvation media. The transfected cells were incubated with compounds and SHh for 20 hrs at 37 °C, 5% C02.
Luciferase assays were conducted on Day 4 using Dual-Glo Luciferase assay system (Promega #E2940) according to Promega's protocol. Briefly, Dual-Glo luciferase reagent was made up and 100 uls were added to each well of the 96 well plate containing media. Plates were shaken at room temperature for 10 minutes, and then read on TopCount (Perkin-Elmer). The luminescence was recorded.

Setting [1] is: C3H 10T1/2, 2 μM test compound, read-out: SMO CELL % INHIBITION @ 2 μM.
Where [2] appears, read: C3H 10T1/2, 2 uM test compound, read-out: SMO % inhibition at 2 uM.

Counter-ions that a name gives are not always drawn. Like-named read-outs stand apart in the source and are kept apart here.

T1 sequence (P56726 33-793): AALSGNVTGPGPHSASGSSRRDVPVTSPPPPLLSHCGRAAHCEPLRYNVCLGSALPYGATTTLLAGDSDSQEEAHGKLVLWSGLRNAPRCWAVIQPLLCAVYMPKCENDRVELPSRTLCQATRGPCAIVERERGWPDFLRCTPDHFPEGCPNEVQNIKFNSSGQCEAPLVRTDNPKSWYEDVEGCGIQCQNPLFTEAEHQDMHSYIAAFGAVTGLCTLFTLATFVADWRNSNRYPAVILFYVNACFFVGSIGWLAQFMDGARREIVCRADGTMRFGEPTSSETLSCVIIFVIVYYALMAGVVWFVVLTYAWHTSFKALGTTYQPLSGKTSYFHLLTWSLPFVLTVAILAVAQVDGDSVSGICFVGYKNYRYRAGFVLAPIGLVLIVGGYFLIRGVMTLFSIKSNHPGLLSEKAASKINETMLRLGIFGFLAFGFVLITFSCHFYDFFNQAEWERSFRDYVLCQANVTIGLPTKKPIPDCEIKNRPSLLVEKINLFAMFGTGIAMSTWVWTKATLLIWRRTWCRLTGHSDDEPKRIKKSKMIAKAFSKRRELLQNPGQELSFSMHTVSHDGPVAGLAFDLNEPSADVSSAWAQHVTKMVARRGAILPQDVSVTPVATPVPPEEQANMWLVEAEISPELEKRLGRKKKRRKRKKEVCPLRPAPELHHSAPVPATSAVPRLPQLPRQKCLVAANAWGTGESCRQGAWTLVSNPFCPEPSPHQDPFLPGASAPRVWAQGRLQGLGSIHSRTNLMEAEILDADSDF

By inhibition is commonly meant the drop in the measured response relative to a control, in per cent. Consider `O=C(N[C@@H]1CCC[C@H](c2nc3ccccc3[nH]2)C1)c1n[nH]c2c1CCCCCC2` [Example 212, N-[(1R,3S)-3-(1H-benzimidazol-2-yl)cyclohexyl]-4,5,6,7,8,9-hexahydro-1H-cycloocta[c] pyrazole-3-carboxamide triflouroacetate], for which, under setting [1], the inhibition at 2 µM turned out to be 71%.
For `O=C(N[C@@H]1CCC[C@H](c2nc3ccccc3[nH]2)C1)c1ccc2c(c1)CNCC2` [Example 308, N-[(1R,3S)-3-(1H-benzimidazol-2-yl)cyclohexyl]-1,2,3,4-tetrahydroiso-quinoline-7-carboxamide HCl], under setting [1], the inhibition at 2 µM was 96.2%.
Regarding `COc1ccc2[nH]c(C3CCCC(NC(=O)c4ccc5c(c4)OCCO5)C3)nc2c1` (stereo not shown) [Example 29, N-(3-(5-Methoxy-1H-benzo[d]imidazol-2-yl)cyclohexyl]-2,3-dihydrobenzo[b][1,4]dioxine-6-carboxamide], the inhibition at 2 µM under setting [2] worked out at 102%.
On to `O=C(N[C@@H]1CCC[C@H](c2nc3ccccc3[nH]2)C1)[C@H]1CCc2ccccc2O1` [Example 207, (2R)-N-[(1R,3S)-3-(1H-benzimidazol-2-yl)cyclohexyl]-chromane-2-carboxamide triflouroacetate], for which the inhibition at 2 µM under setting [1] came to 107%.
Same read-out and setting: as for `Cn1cc(CN2CCCC2)cc1C(=O)NC1CCCC(c2nc3ccccc3[nH]2)C1` (stereo not shown) [Example 130, N-[3-(1H-benzimidazol-2-yl)cyclohexyl]-1-methyl-4-(pyrrolidin-1-ylmethyl)-1H-pyrrole-2-carboxamide triflouroacetate], the figure is 84%.
As for `COc1cc(OC)cc(C(=O)N[C@@H]2CCC[C@H](c3nc4ccc(C(F)(F)F)cc4[nH]3)C2)c1` [Example 4, 3,5-Dimethoxy-N-((1R,3S)-3-[5-(trifluoromethyl)-1H-benzo[d]imidazol-2-yl)cyclohexyl)benzamide], the inhibition at 2 µM under setting [2] amounted to 105%.
Consider `CN1C(=O)COc2ccc(C(=O)N[C@@H]3CCC[C@H](c4nc5ccccc5n4C)C3)cc21` [Example 297, 4-methyl-N-[(1R,3S)-3-(1-methyl-1H-benzimidazol-2-yl)cyclohexyl]-3-oxo-3,4-dihydro-2H-1,4-benzoxazine-6-carboxamide (+)-tartrate], for which the inhibition at 2 µM under setting [1] worked out at 106%.
Still for that read-out and setting: for `O=C(N[C@@H]1CCC[C@@H](c2nc3ccccc3[nH]2)C1)c1ccc2c(c1)OCCO2` [Example 65, N-[(1R,3R)-3-(1H-benzimidazol-2-yl)cyclohexyl]-2,3-dihydro-1,4-benzodioxine-6-carboxamide HCl] the value was 96%; for `CCc1n[nH]c(C(=O)NC2CCCC(c3nc4ccccc4[nH]3)C2)c1C` (stereo not shown) [Example 155, N-[3-(1H-benzimidazol-2-yl)cyclohexyl]-3-ethyl-4-methyl-1H-pyrazol-5-carboxamide triflouroacetate], 64%.
In the case of `O=C(N[C@@H]1CCC[C@H](c2nc3ccccc3[nH]2)C1)c1nc2ccccc2[nH]1` [Example 176, N-[(1R,3S)-3-(1H-benzimidazol-2-yl)cyclohexyl]-1H-benzimidazole-2-carboxamide HCl], the inhibition at 2 µM under setting [1] came out at 57%.
Same read-out and setting: as for `O=C(C[C@H]1C[C@H]2C=C[C@@H]1C2)NC1CCCC(c2nc3ccccc3[nH]2)C1` (stereo partly drawn) [Example 125, N-[3-(1H-benzimidazol-2-yl)cyclohexyl]-2-[(1S,2S,4S)-bicyclo[2.2.1]hept-5-en-2-yl]acetamide triflouroacetate], the figure is 103%.
On to “N-(3-(6-(Hydroxymethyl)-1-methyl-1H-benzo[d]imidazol-2-yl)cyclohexyl)-2,3-dihydrobenzo[b][1,4]dioxine-6-carboxamide and N-(3-(5-(Hydroxymethyl)-1-methyl-1H-benzo[d]imidazol-2-yl)cyclohexyl)-2,3-dihydrobenzo[b][1,4]dioxine-6-carboxamide [Example 30]”, for which the “SMO % inhibition at 2 uM” value amounted to 104%.
In the case of `O=C(NC12CCCC(c3nc4cc(C(F)(F)F)ccc4[nH]3)(C1)C2)c1ccc(C(=O)C(F)(F)F)cc1` [Example 274, 4-(trifluoroacetyl)-N-{5-[5-(trifluoromethyl)-1H-benzimidazol-2-yl]bicyclo[3.1.1]hept-1-yl}benzamide], under setting [1], the inhibition at 2 µM is 105%.
As for `O=C(NC1CCCC(c2nc3ccccc3[nH]2)C1)c1cc(-c2ccccn2)n[nH]1` (stereo not shown) [Example 153, N-[3-(1H-benzimidazol-2-yl)cyclohexyl]-3-pyridin-2-yl-1H-pyrazole-5-carboxamide triflouroacetate], the inhibition at 2 µM under setting [1] is 46%.
Same read-out and setting: as for `Cc1ccc(C(=O)NC2CCCC(c3nc4ccccc4[nH]3)C2)c(Cl)n1` (stereo not shown) [Example 124, N-[3-(1H-benzimidazol-2-yl)cyclohexyl]-2-chloro-6-methylnico-tinamide triflouroacetate], the figure is 62%.
“N-(3-(5-Cyano-1-methyl-1H-benzo[d]imidazol-2-yl)cyclohexyl]-2,3-dihydrobenzo[b][1,4]dioxine-6-carboxamide and N-(3-(6-Cyano-1-methyl-1H-benzo[d]imidazol-2-yl)cyclohexyl]-2,3-dihydrobenzo[b][1,4]dioxine-6-carboxamide [Example 20]”: the “SMO % inhibition at 2 uM” value is on record as 103%.
With `O=C(N[C@@H]1CCC[C@H](c2nc3ccccc3[nH]2)C1)c1ccc2scnc2c1` [Example 216, N-[(1R,3S)-3-(1H-benzimidazol-2-yl)cyclohexyl]-1,3-benzothiazole-5-carboxamide triflouroacetate], the inhibition at 2 µM under setting [1] was 86%.
`Cn1c(=O)[nH]c2cc(C(=O)NC3CCCC(c4nc5ccccc5[nH]4)C3)ccc21` (stereo not shown) [Example 143, N-[3-(1H-benzimidazol-2-yl)cyclohexyl]-1-methyl-2-oxo-2,3-dihydro-1H-benzimidazole-5-carboxamide triflouroacetate]: under setting [1], the inhibition at 2 µM was found to be 87%.
Consider `COc1cc(OC)cc(C(=O)NC2CCCC(c3nc4cc(C(F)(F)F)ccc4[nH]3)C2)c1` (stereo not shown) [Example 74, 3,5-dimethoxy-N-{3-[6-(trifluoromethyl)-1H-benzimidazol-2-yl)cyclohexyl}-benzamide HCl], for which the inhibition at 2 µM under setting [1] came out at 105%.
In the case of “N-(3-(6-(2-Hydroxypropan-2-yl)-1-methyl-1H-benzo[d]imidazol-2-yl)cyclohexyl)-2,3-dihydrobenzo[b][1,4]dioxine-6-carboxamide and N-(3-(5-(2-Hydroxypropan-2-yl)-1-methyl-1H-benzo[d]imidazol-2-yl)cyclohexyl)-2,3-dihydrobenzo[b][1,4]dioxine-6-carboxamide [Example 31]”, the “SMO % inhibition at 2 uM” value amounted to 97%.
For the molecule `COc1cc(OC)cc(C(=O)NC23CCCC(c4nc5cc(C(F)(F)F)ccc5[nH]4)(C2)C3)c1` [Example 260, 3,5-dimethoxy-N-{5-[5-(trifluoromethyl)-1H-benzimidazol-2-yl]bicyclo[3.1.1]hept-1-yl}benzamide HCl], the “SMO CELL % INHIBITION @ 2 μM” value is 101.34%.
For the molecule `COc1ccc2nc([C@H]3CCC[C@@H](NC(=O)c4ccc5c(c4)OCCO5)C3)[nH]c2c1` [Example 180, N-[(1R,3S)-3-(6-methoxy-1H-benzimidazol-2-yl)cyclohexyl]-2,3-dihydro-1,4-benzodioxine-6-carboxamide HCl], the inhibition at 2 µM under setting [1] was determined as 107%.
In the case of `COCCNc1cc(C(=O)N[C@@H]2CCC[C@H](c3nc4ccccc4[nH]3)C2)ccn1` [Example 42, N-((1R,3S)-3-(1H-Benzo[d]imidazol-2-yl)cyclohexyl)-2-(2-methoxyethylamino)isonicotinamide], the inhibition at 2 µM under setting [2] was found to be 87%.
For the molecule `O=C(N[C@@H]1CCC[C@H](c2nc3ccccc3[nH]2)C1)c1ccc2c(c1)CCCO2` [Example 266, N-[(1R,3S)-3-(1H-benzimidazol-2-yl)cyclohexyl] chromane-6-carboxamide HCl], the “SMO CELL % INHIBITION @ 2 μM” value is given as 102.05%.
For “N-(3-(1,5-Dimethyl-1H-benzo[d]imidazol-2-yl)cyclohexyl]-3,5-dimethoxybenzamide and N-(3-(1,6-dimethyl-1H-benzo[d]imidazol-2-yl)cyclohexyl]-3,5-dimethoxybenzamide [Example 22]”, the “SMO % inhibition at 2 uM” value was found to be 98%.
